Structures can show the parent of a compound that is named as a salt. Where two headings read alike, the source gives them in different places.
Columns and labels:
[1] = biological target: T1, Human recombinant LSD1 protein (Homo sapiens (Human), UniProt O60341); assay: biochemical
[2] = biological target: T2, MAO-B (Homo sapiens (Human), UniProt P27338); assay: biochemical
[3] = biological target: T3, MAO-A (Homo sapiens (Human), UniProt P21397); conditions: read-out: MAO-A (Ki)
[4] = biological target: T3, MAO-A; assay: biochemical
[5] = biological target: T1, Human recombinant LSD1 protein; conditions: for Ki: read-out: LSD1 (Ki)
[6] = biological target: T2, MAO-B; conditions: read-out: MAO-B (Ki)

T3 sequence (P21397 whole entry): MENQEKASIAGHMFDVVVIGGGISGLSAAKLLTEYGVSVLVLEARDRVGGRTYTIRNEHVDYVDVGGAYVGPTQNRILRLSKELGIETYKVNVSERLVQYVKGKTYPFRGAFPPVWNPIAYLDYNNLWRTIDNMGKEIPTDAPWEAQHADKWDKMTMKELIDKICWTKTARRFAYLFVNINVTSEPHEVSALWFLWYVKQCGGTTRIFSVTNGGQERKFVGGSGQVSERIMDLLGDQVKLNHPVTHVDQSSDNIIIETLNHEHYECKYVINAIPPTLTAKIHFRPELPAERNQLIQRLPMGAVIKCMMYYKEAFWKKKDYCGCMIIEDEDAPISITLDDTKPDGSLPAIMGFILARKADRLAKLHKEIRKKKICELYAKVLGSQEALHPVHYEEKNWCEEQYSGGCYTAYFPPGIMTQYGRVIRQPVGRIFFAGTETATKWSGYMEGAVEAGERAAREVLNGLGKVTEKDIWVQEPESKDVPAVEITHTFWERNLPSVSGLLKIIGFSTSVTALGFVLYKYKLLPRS
T2 sequence (P27338 whole entry): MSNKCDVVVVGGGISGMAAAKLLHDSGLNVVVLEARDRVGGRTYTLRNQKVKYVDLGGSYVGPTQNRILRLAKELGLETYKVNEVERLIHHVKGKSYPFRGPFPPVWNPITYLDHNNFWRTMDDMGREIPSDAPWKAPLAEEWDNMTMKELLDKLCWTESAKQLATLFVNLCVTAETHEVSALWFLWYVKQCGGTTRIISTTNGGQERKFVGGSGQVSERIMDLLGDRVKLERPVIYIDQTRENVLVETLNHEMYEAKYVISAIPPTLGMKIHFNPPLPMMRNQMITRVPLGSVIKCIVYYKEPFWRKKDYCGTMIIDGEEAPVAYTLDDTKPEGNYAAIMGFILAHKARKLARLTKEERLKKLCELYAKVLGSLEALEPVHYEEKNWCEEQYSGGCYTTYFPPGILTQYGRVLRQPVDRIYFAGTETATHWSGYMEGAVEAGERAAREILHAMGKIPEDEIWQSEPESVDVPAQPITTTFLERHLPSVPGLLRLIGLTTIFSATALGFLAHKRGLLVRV

Row | Ki [1] [nM] | Ki [2] [nM] | Ki [3] [nM] | Ki [4] [nM] | Ki [5] [nM] | Ki [6] [nM] | LSD1 (Ki) [5] | Compound
1 | 100 to 1000 | 1000 to 40000 |  | 1000 to 40000 |  |  |  | COc1ccc(-c2ccc([C@H]3C[C@@H]3N)cn2)cc1 (relative stereo) [Example 10, (trans)-2-(6-(4-methoxyphenyl)pyridin-3-yl)cyclopropanamine hydrochloride]
2 | 1 to 100 | 100 to 1000 |  | 100 to 1000 |  |  |  | N[C@H]1C[C@@H]1c1ccc(-c2cccc(O)c2)s1 (relative stereo) [Example 113, 3-(5-((trans)-2-aminocyclopropyl)thiophen-2-yl)phenol trihydrochloride]
3 |  |  | 1000 to 40000 |  | 1000 to 40000 | 1000 to 40000 |  | N[C@H]1C[C@@H]1c1ccc(-c2cccc(C(F)(F)F)c2)nc1-c1ccc(Cl)cc1 (relative stereo) [Example 77, (trans)-2-(2-(4-chlorophenyl)-6-(3-(trifluoromethyl)phenyl)pyridin-3-yl)cyclopropanamine hydrochloride]
4 | 1 to 100 | 100 to 1000 |  | 100 to 1000 |  |  |  | CS(=O)(=O)Nc1cc(Cl)cc(-c2ccc([C@H]3C[C@@H]3N)cc2)c1 (relative stereo) [Example 94, N-(4′-((trans)-2-aminocyclopropyl)-5-chloro-[1,1′-biphenyl]-3-yl)methanesulfonamide hydrochloride]
5 |  |  | 1000 to 40000 |  |  | 1000 to 40000 | II-III | COc1ccc(C#N)cc1-c1ccc([C@H]2C[C@@H]2N)cc1.Cl (relative stereo) [Example 74, 4′-((trans)-2-aminocyclopropyl)-6-methoxybiphenyl-3-carbonitrile hydrochloride]
6 |  |  | 1000 to 40000 |  | 1000 to 40000 | 1000 to 40000 |  | NC(=O)c1ccc(-c2ccc([C@H]3C[C@@H]3N)cn2)cc1 (relative stereo) [Example 18, 4-(5-((trans)-2-aminocyclopropyl)pyridin-2-yl)benzamide hydrochloride]
7 |  |  | 1000 to 40000 |  |  | 1000 to 40000 | II-III | Cl.N[C@H]1C[C@@H]1c1ccc(-c2ccc3cn[nH]c3c2)nc1 (relative stereo) [Example 60, (Trans)-2-(6-(1H-indazol-6-yl)pyridin-3-yl)cyclopropanamine hydrochloride]
8 |  |  | 1000 to 40000 |  |  | 1000 to 40000 | II-III | CS(=O)(=O)Nc1ccccc1-c1ccc([C@H]2C[C@@H]2N)cc1.Cl (relative stereo) [Example 73, N-(4′-((trans)-2-aminocyclopropyl)biphenyl-2-yl)methanesulfonamide hydrochloride]
9 |  |  | 1000 to 40000 |  | 1000 to 40000 | 1000 to 40000 |  | N[C@H]1C[C@@H]1c1ccc(-c2ccc3c(c2)[nH]c2ccccc23)nc1 (relative stereo) [Example 61, (Trans)-2-(6-(9H-carbazol-2-yl)pyridin-3-yl)cyclopropanamine hydrochloride]

Second part, the compound before the results:

Row | Compound | Ki [1] [nM] | Ki [2] [nM] | Ki [3] [nM] | Ki [4] [nM] | Ki [5] [nM] | Ki [6] [nM] | LSD1 (Ki) [5]
10 | N[C@H]1C[C@@H]1c1ccc(-c2ccc(Cl)cc2)nc1 (relative stereo) [Example 7, (trans)-2-(6-(4-chlorophenyl)pyridin-3-yl)cyclopropanamine hydrochloride] | 100 to 1000 | 100 to 1000 | 1000 to 40000 |  |  |  | 
11 | N[C@H]1C[C@@H]1c1ccc(-c2ccc(C(F)(F)F)cc2)nc1 (relative stereo) [Example 9, (trans)-2-(6-(4-(trifluoromethyl)phenyl)pyridin-3-yl)cyclopropanamine hydrochloride] | 100 to 1000 | 1 to 100 | 1000 to 40000 |  |  |  | 
12 | N[C@H]1C[C@@H]1c1ccc(-c2cc(Cl)cc(Cl)c2)nc1 (relative stereo) [Example 6, (Trans)-2-(6-(3,5-dichlorophenyl)pyridin-3-yl)cyclopropanamine hydrochloride] | 100 to 1000 | 100 to 1000 | 1000 to 40000 |  |  |  | 
13 | N[C@H]1C[C@@H]1c1ccc(-c2ccc(-c3ccccc3)cc2)cc1 [Example 2, (trans)-2-(terphenyl-4-yl)cyclopropanamine hydrochloride] | 100 to 1000 | 100 to 1000 |  |  |  |  | 
14 | Enantiomers of 4′-((trans)-2-aminocyclopropyl)biphenyl-3-ol hydrochloride [Example 63] |  |  | 1000 to 40000 |  | 1 to 100 | 1000 to 40000 | 
15 | N[C@H]1C[C@@H]1c1ccc(-c2cccc(C(F)(F)F)c2)nc1-c1ccc(O)cc1 (relative stereo) [Example 78, 4-(3-((trans)-2-aminocyclopropyl)-6-(3-(trifluoromethyl)phenyl)pyridin-2-yl)phenol hydrochloride] |  |  | 1000 to 40000 |  | 1000 to 40000 | 1000 to 40000 | 
